Experimental data as given in publication PMC8701318, “LC-QTOF-MS/MS Based Molecular Networking Approach for the Isolation of α-Glucosidase Inhibitors and Virucidal Agents from Coccinia grandis (L.) Voigt” (Foods, 2021).

Legend:
[1] = Cytotoxicity in MDCK cells by the MTT assay; conditions: dog
influenza A virus H1N1 = assay: Virucidal activity, ASTM E1053-20 method; type: cell-based; conditions: for Virucidal Activity Log Reduction: 10 min exposure
α-glucosidase = tested on: α-glucosidase; set-up: method as in PMID 24125526; conditions: isolated from leaves of Morus atropurpurea; cited from earlier work
[2] = target: α-Glucosidase enzyme (Saccharomyces cerevisiae); assay: In-vitro α-glucosidase inhibitory assay (p-NPG substrate); conditions: read-out: α-Glucosidase Inhibitory Activity, IC50; mean ± s.d. of a triplicate experiment
Protocol: The α-glucosidase assay was performed as described by Liu et al. [21] with slight modification. The reaction mixture consisting of 50 µL of potassium phosphate buffer (PBS, 0.1 M, pH 6.8) and 20 µL of α-glucosidase (0.5 U/mL) was pre-incubated with 20 µL of the test sample at 37 °C for 15 min in a 96-well plate. The mixture was added 20 µL p-NPG (1 mM) and incubated again at 37 °C for 15 min. A total of 50 µL of Na2CO3 (0.2 M) was added to terminate the enzymatic activity. The absorbance value of each well was measured immediately using a microplate reader at 405 nm. […] All glycosides were dissolved in 50% DMSO, while a crude extract was dissolved in 100% DMSO. The experiment was performed in triplicate. The enzyme inhibition rate was calculated as follows:(1) [1−(ODsample−ODsample blank)/(ODcontrol−ODblank)] × 100 where ODsample represents the absorbance of PBS + enzyme + sample + p-NPG; ODsample blank represents the absorbance of PBS + sample; ODcontrol represents the absorbance of PBS + enzyme + solvent + p-NPG; ODblank represents the absorbance of PBS + solvent. The inhibitory activity is expressed as IC50 (half minimal inhibitory concentration) value. Data were normalized, and the IC50 values were calculated using GraphPad Prism 9.2.0.

[3] = tested on: dengue virus serine protease; set-up: method as in PMID 32107969; conditions: cited from earlier work
[4] = tested on: hippocampal neural progenitor cells; set-up: method as in PMID 19326568; conditions: possibly via the 5-HT1A receptor; cited from earlier work
[5] = mice model; cited from earlier work
[6] = set-up: method as in earlier work; conditions: isolated from cottonseeds; cited from earlier work
hepatitis C virus = tested on: hepatitis C virus; set-up: method as in PMID 28638096; conditions: cited from earlier work

SMILES: C[C@@H]1O[C@@H](OC[C@H]2O[C@@H](Oc3c(-c4ccc(O)cc4)oc4cc(O)cc(O)c4c3=O)[C@H](O)[C@@H](O)[C@@H]2O)[C@H](O)[C@H](O)[C@H]1O [Compound 2, kaempferol 3-O-rutinoside]
- viability at 3.9 µg/mL [1]: 98.1 ± 1.34%
- viability at 7.8 µg/mL [1]: 96.3 ± 5.13%
- viability at 15.6 µg/mL [1]: 92.3 ± 1.95%
- viability at 31.3 µg/mL [1]: 88.5 ± 2.67%
- viability at 62.5 µg/mL [1]: 86.5 ± 3.82%
- viability at 125 µg/mL [1]: 78 ± 1.75%
- Virucidal Activity Log Reduction (influenza A virus H1N1; 3.9 µg/mL): 1.66 ± 0.071 Log
- Virucidal Activity Log Reduction (influenza A virus H1N1; 7.8 µg/mL): 1.65 ± 0.084 Log
- Virucidal Activity Log Reduction (influenza A virus H1N1; 15.6 µg/mL): 1.66 ± 0.071 Log
- Virucidal Activity Log Reduction (influenza A virus H1N1; 31.3 µg/mL): 1.68 ± 0.046 Log
- Virucidal Activity Log Reduction (influenza A virus H1N1; 62.5 µg/mL): 1.82 ± 0.091 Log
- Virucidal Activity Log Reduction (influenza A virus H1N1; 125.0 µg/mL): 1.95 ± 0.124 Log
- α-glucosidase inhibitory activity (in words) (α-glucosidase): α-glucosidase inhibitory activity
- IC50 [2]: 236 ± 27.7 µM
- inhibition of dengue virus serine protease (in words) [3]: strong inhibition

SMILES: C[C@@H]1O[C@@H](OC[C@H]2O[C@@H](Oc3c(-c4ccc(O)cc4)oc4cc(O)cc(O)c4c3=O)[C@H](O[C@@H]3OCC(O)(CO)[C@H]3O)[C@@H](O)[C@@H]2O)[C@H](O)[C@H](O)[C@H]1O (stereo partly drawn) [Compound 6, kaempferol 3-O-β-D-apiofuranosyl-(1→2)-[α-L-rhamnopyranosyl-(1→6)]-β-D-glucopyranoside]
- viability at 15.6 µg/mL [1]: 97 ± 2.99%
- viability at 31.3 µg/mL [1]: 95.7 ± 1.63%
- viability at 62.5 µg/mL [1]: 93.7 ± 4.87%
- viability at 125 µg/mL [1]: 89.5 ± 0.83%
- viability at 250 µg/mL [1]: 88.6 ± 0.43%
- viability at 500 µg/mL [1]: 86.4 ± 2.06%
- Virucidal Activity Log Reduction (influenza A virus H1N1; 15.6 µg/mL): 1.93 ± 0.124 Log
- Virucidal Activity Log Reduction (influenza A virus H1N1; 31.3 µg/mL): 1.93 ± 0.124 Log
- Virucidal Activity Log Reduction (influenza A virus H1N1; 62.5 µg/mL): 1.93 ± 0.124 Log
- Virucidal Activity Log Reduction (influenza A virus H1N1; 125.0 µg/mL): 1.93 ± 0.124 Log
- Virucidal Activity Log Reduction (influenza A virus H1N1; 250.0 µg/mL): 1.93 ± 0.124 Log
- Virucidal Activity Log Reduction (influenza A virus H1N1; 500.0 µg/mL): 1.97 ± 0.042 Log
- reduction of virus (influenza A virus H1N1; 500.0 and 250.0 µg/mL): 99%
- virucidal Log reduction (influenza A virus H1N1; 500.0 and 250.0 µg/mL): 1.93–2.41 Log
- IC50 [2]: 456 ± 26 µM

SMILES: C[C@@H]1O[C@@H](OC[C@H]2O[C@@H](Oc3c(-c4ccc(O)c(O)c4)oc4cc(O)cc(O)c4c3=O)[C@H](O[C@@H]3OCC(O)(CO)[C@H]3O)[C@@H](O)[C@@H]2O)[C@H](O)[C@H](O)[C@H]1O (stereo partly drawn) [Compound 5, quercetin 3-O-β-D-apiofuranosyl-(1→2)-[α-L-rhamnopyranosyl-(1→6)]-β-D-glucopyranoside]
- proliferation of hippocampal neural progenitor cells (in words) [4]: could enhance the proliferation
- viability at 15.6 µg/mL [1]: 95.8 ± 4.22%
- viability at 31.3 µg/mL [1]: 94.1 ± 1.85%
- viability at 62.5 µg/mL [1]: 90 ± 3.08%
- viability at 125 µg/mL [1]: 85.8 ± 2.87%
- viability at 250 µg/mL [1]: 83.7 ± 1.2%
- viability at 500 µg/mL [1]: 82.9 ± 2.06%
- absorption and tissue distribution (in words) [5]: could be absorbed and distributed into tissues
- Virucidal Activity Log Reduction (influenza A virus H1N1; 15.6 µg/mL): 1.87 ± 0.072 Log
- Virucidal Activity Log Reduction (influenza A virus H1N1; 31.3 µg/mL): 1.84 ± 0.108 Log
- Virucidal Activity Log Reduction (influenza A virus H1N1; 62.5 µg/mL): 1.90 ± 0.062 Log
- Virucidal Activity Log Reduction (influenza A virus H1N1; 125.0 µg/mL): 1.97 ± 0.088 Log
- Virucidal Activity Log Reduction (influenza A virus H1N1; 250.0 µg/mL): 2.01 ± 0.239 Log
- Virucidal Activity Log Reduction (influenza A virus H1N1; 500.0 µg/mL): 2.11 ± 0.198 Log
- reduction of virus (influenza A virus H1N1; 500.0 and 250.0 µg/mL): 99%
- virucidal Log reduction (influenza A virus H1N1; 500.0 and 250.0 µg/mL): 1.93–2.41 Log
- IC50 [2]: 431 ± 17.6 µM
- antidepressant and cytoprotective effects (in words) [6]: antidepressant and cytoprotective effects

SMILES: C[C@@H]1O[C@@H](OC[C@H]2O[C@@H](Oc3c(-c4ccc(O)cc4)oc4cc(O)cc(O)c4c3=O)[C@H](O[C@@H]3OCC(O)(CO)[C@H]3O)[C@@H](O)[C@H]2O)[C@H](O)[C@H](O)[C@H]1O (stereo partly drawn) [Compound 7, kaempferol 3-O-β-D-apiofuranosyl-(1→2)-[α-L-rhamnopyranosyl-(1→6)]-β-D-galactopyranoside]
- IC50 [2]: 432 ± 18.9 µM

SMILES: C[C@@H]1O[C@@H](OC[C@H]2O[C@@H](Oc3c(-c4ccc(O)c(O)c4)oc4cc(O)cc(O)c4c3=O)[C@H](O)[C@@H](O)[C@@H]2O)[C@H](O)[C@H](O)[C@H]1O [Compound 1, rutin]
- viability at 3.9 µg/mL [1]: 99.3 ± 3.45%
- viability at 7.8 µg/mL [1]: 97.8 ± 0.31%
- viability at 15.6 µg/mL [1]: 94.7 ± 3.93%
- viability at 31.3 µg/mL [1]: 86.5 ± 2.16%
- viability at 62.5 µg/mL [1]: 83.8 ± 2.02%
- viability at 125 µg/mL [1]: 77.2 ± 1.28%
- Virucidal Activity Log Reduction (influenza A virus H1N1; 3.9 µg/mL): 1.20 ± 0.025 Log
- Virucidal Activity Log Reduction (influenza A virus H1N1; 7.8 µg/mL): 1.32 ± 0.032 Log
- Virucidal Activity Log Reduction (influenza A virus H1N1; 15.6 µg/mL): 1.34 ± 0.044 Log
- Virucidal Activity Log Reduction (influenza A virus H1N1; 31.3 µg/mL): 1.34 ± 0.030 Log
- Virucidal Activity Log Reduction (influenza A virus H1N1; 62.5 µg/mL): 1.52 ± 0.045 Log
- Virucidal Activity Log Reduction (influenza A virus H1N1; 125.0 µg/mL): 1.80 ± 0.105 Log
- α-glucosidase inhibitory activity (in words) (α-glucosidase): α-glucosidase inhibitory activity
- IC50 [2]: 243 ± 5.29 µM
- hepatitis C virus entry inhibition (in words) (hepatitis C virus): potent hepatitis C virus entry inhibitor

SMILES: C[C@@H]1O[C@@H](OC[C@H]2O[C@@H](Oc3c(-c4ccc(O)cc4)oc4cc(O)cc(O)c4c3=O)[C@H](O)[C@@H](O)[C@H]2O)[C@H](O)[C@H](O)[C@H]1O [Compound 3, kaempferol 3-O-alpha-L-rhamnopyranosyl-(1→6)-beta-D-galactopyranoside]
- viability at 3.9 µg/mL [1]: 95.6 ± 6.25%
- viability at 7.8 µg/mL [1]: 92.8 ± 4.84%
- viability at 15.6 µg/mL [1]: 89.7 ± 0.82%
- viability at 31.3 µg/mL [1]: 88.7 ± 0.21%
- viability at 62.5 µg/mL [1]: 83.6 ± 0.74%
- viability at 125 µg/mL [1]: 73.3 ± 0.9%
- Virucidal Activity Log Reduction (influenza A virus H1N1; 3.9 µg/mL): 1.63 ± 0.069 Log
- Virucidal Activity Log Reduction (influenza A virus H1N1; 7.8 µg/mL): 1.66 ± 0.071 Log
- Virucidal Activity Log Reduction (influenza A virus H1N1; 15.6 µg/mL): 1.91 ± 0.062 Log
- Virucidal Activity Log Reduction (influenza A virus H1N1; 31.3 µg/mL): 1.95 ± 0.124 Log
- Virucidal Activity Log Reduction (influenza A virus H1N1; 62.5 µg/mL): 1.91 ± 0.062 Log
- Virucidal Activity Log Reduction (influenza A virus H1N1; 125.0 µg/mL): 1.98 ± 0.088 Log
- reduction of virus (influenza A virus H1N1; 31.3 and 15.6 µg/mL): 99%
- virucidal Log reduction (influenza A virus H1N1; 31.3 and 15.6 µg/mL): around 1.9 Log
- IC50 [2]: 195 ± 18.1 µM
